Results reported in ChEMBL document CHEMBL4346757, “Synthesis and biological evaluation of 7-methoxy-1-(3,4,5-trimethoxyphenyl)-4,5-dihydro-2H-benzo[e]indazoles as new colchicine site inhibitors” (Bioorg Med Chem Lett, 2019).

Key:
Format in all cases: functional
[1] = system: SK-OV-3; assay: Growth inhibition of human SKOV3 cells assessed as cell growth at 10 uM after 48 hrs by SRB assay relative to control; conditions: SK-OV-3, 48 h, read-out: Activity
[2] = system: SNB-19; assay: Growth inhibition of human SNB19 cells assessed as cell growth at 100 uM after 48 hrs by SRB assay relative to control; conditions: SNB-19, 48 h, read-out: Activity
[3] = system: CCRF-CEM; assay: Growth inhibition of human CCRF-CEM cells assessed as cell growth at 100 uM after 48 hrs by SRB assay relative to control; conditions: read-out: Activity
[4] = system: SNB-75; assay: Growth inhibition of human SNB75 cells assessed as cell growth at 100 uM after 48 hrs by SRB assay relative to control; conditions: SNB-75, 48 h, read-out: Activity
[5] = system: 786-0; assay: Growth inhibition of human 786-0 cells assessed as cell growth at 0.01 uM after 48 hrs by SRB assay relative to control; conditions: 786-0, 48 h, read-out: Activity
[6] = system: HOP-92; assay: Cytotoxicity against human HOP92 cells assessed as growth inhibition after 48 hrs by SRB assay; conditions: HOP-92, 48 h
[7] = system: MDA-MB-231; assay: Cytotoxicity against human MDA-MB-231/ATCC cells assessed as growth inhibition after 48 hrs by SRB assay; conditions: MDA-MB-231, 48 h
[8] = system: SK-MEL-28; assay: Growth inhibition of human SK-MEL-28 cells assessed as cell growth at 10 uM after 48 hrs by SRB assay relative to control; conditions: SK-MEL-28, 48 h, read-out: Activity
[9] = system: UO-31; assay: Growth inhibition of human UO31 cells assessed as cell growth at 0.01 uM after 48 hrs by SRB assay relative to control; conditions: UO-31, 48 h, read-out: Activity
[10] = system: NCI-H322M; assay: Cytotoxicity against human NCI-H322M cells assessed as growth inhibition after 48 hrs by SRB assay
[11] = system: OVCAR-8; assay: Growth inhibition of human OVCAR8 cells assessed as cell growth at 100 uM after 48 hrs by SRB assay relative to control; conditions: OVCAR-8, 48 h, read-out: Activity
[12] = system: HCC 2998; assay: Growth inhibition of human HCC2998 cells assessed as cell growth at 0.1 uM after 48 hrs by SRB assay relative to control; conditions: HCC 2998, 48 h, read-out: Activity
[13] = system: RXF 393; assay: Growth inhibition of human RXF393 cells assessed as cell growth at 10 uM after 48 hrs by SRB assay relative to control; conditions: RXF 393, 48 h, read-out: Activity
[14] = system: MOLT-4; assay: Growth inhibition of human MOLT4 cells assessed as cell growth at 0.1 uM after 48 hrs by SRB assay relative to control; conditions: MOLT-4, 48 h, read-out: Activity
[15] = system: HCT-15; assay: Cytotoxicity against human HCT15 cells assessed as growth inhibition after 48 hrs by SRB assay; conditions: HCT-15, 48 h
[16] = system: LOX IMVI; assay: Cytotoxicity against human LOXIMVI cells assessed as growth inhibition after 48 hrs by SRB assay
[17] = system: OVCAR-5; assay: Growth inhibition of human OVCAR5 cells assessed as cell growth at 0.1 uM after 48 hrs by SRB assay relative to control; conditions: OVCAR-5, 48 h, read-out: Activity
[18] = system: SF-539; assay: Cytotoxicity against human SF539 cells assessed as growth inhibition after 48 hrs by SRB assay; conditions: SF-539, 48 h
[19] = system: SK-MEL-28; assay: Growth inhibition of human SK-MEL-28 cells assessed as cell growth at 1 uM after 48 hrs by SRB assay relative to control; conditions: SK-MEL-28, 48 h, read-out: Activity
[20] = system: U-251; assay: Cytotoxicity against human U251 cells assessed as growth inhibition after 48 hrs by SRB assay; conditions: U-251, 48 h
[21] = system: SK-OV-3; assay: Growth inhibition of human SKOV3 cells assessed as cell growth at 0.01 uM after 48 hrs by SRB assay relative to control; conditions: SK-OV-3, 48 h, read-out: Activity
[22] = system: SK-OV-3; assay: Cytotoxicity against human SKOV3 cells assessed as growth inhibition after 48 hrs by SRB assay; conditions: SK-OV-3, 48 h
[23] = system: SR; assay: Cytotoxicity against human SR cells assessed as growth inhibition after 48 hrs by SRB assay
[24] = system: SK-MEL-5; assay: Growth inhibition of human SK-MEL-5 cells assessed as cell growth at 0.01 uM after 48 hrs by SRB assay relative to control; conditions: SK-MEL-5, 48 h, read-out: Activity
[25] = system: SF-268; assay: Cytotoxicity against human SF268 cells assessed as growth inhibition after 48 hrs by SRB assay; conditions: SF-268, 48 h
[26] = system: MCF7; assay: Growth inhibition of human MCF7 cells assessed as cell growth at 10 uM after 48 hrs by SRB assay relative to control; conditions: MCF7, 48 h, read-out: Activity
[27] = system: MDA-MB-435; assay: Growth inhibition of human MDA-MB-435 cells assessed as cell growth at 10 uM after 48 hrs by SRB assay relative to control; conditions: MDA-MB-435, 48 h, read-out: Activity
[28] = read-out: LC50 (the source's name)
[29] = read-out: pLC50 (the source's name) (converted)

Work on `COc1ccc2c(c1)CCc1n[nH]c(-c3cc(OC)c(OC)c(OC)c3)c1-2` yielded a growth at 10 µM [1] of -13%, a growth at 100 µM [2] of -12% and a growth at 100 µM [3] of 25%. It also gave a growth at 100 µM [4] of -30%, a growth at 0.01 µM [5] of 24% and a GI50 ([6]; read-out: GI50) of less than 0.01 µM. The CC50 [6, 28] was 99.8 µM, the TGI ([6]; read-out: TGI) was 28.5 µM and the GI50 ([6]; read-out: pGI50 (converted)) was less than 0.01 µM. It also gave a CC50 [6, 29] of 100 µM, a TGI ([6]; read-out: pTGI (converted)) of 28.2 µM and a GI50 ([7]; read-out: GI50) of less than 0.01 µM. It also gave an LC50 (concentration killing 50% of cells) ([7]; read-out: LC50) greater than 100 µM, a TGI ([7]; read-out: TGI) of 44.8 µM and a GI50 ([7]; read-out: pGI50 (converted)) of less than 0.01 µM. For the same compound, the LC50 (concentration killing 50% of cells) ([7]; read-out: pLC50 (converted)) was greater than 100 µM, the TGI ([7]; read-out: pTGI (converted)) was 44.7 µM and the growth at 10 µM [8] was 34%. For the same compound, the growth at 0.01 µM [9] was 42%, the GI50 ([10]; read-out: GI50) was less than 0.01 µM and the CC50 [10, 28] was greater than 100 µM. For the same compound, the TGI ([10]; read-out: TGI) was 39.5 µM, the GI50 ([10]; read-out: pGI50 (converted)) was less than 0.01 µM and the CC50 [10, 29] was greater than 100 µM. The TGI ([10]; read-out: pTGI (converted)) was 39.8 µM, the growth at 100 µM [11] was -38% and the growth at 0.1 µM [12] was 11%. The growth at 10 µM [13] was -6%, the growth at 0.1 µM [14] was 35% and the GI50 ([15]; read-out: GI50) was less than 0.01 µM. The CC50 [15, 28] was greater than 100 µM, the TGI ([15]; read-out: TGI) was 11.8 µM and the GI50 ([15]; read-out: pGI50 (converted)) was less than 0.01 µM. For the same compound, the CC50 [15, 29] was greater than 100 µM, the TGI ([15]; read-out: pTGI (converted)) was 11.7 µM and the GI50 ([16]; read-out: GI50) was less than 0.01 µM. It also gave a CC50 [16, 28] of 38.3 µM, a TGI ([16]; read-out: TGI) of 11.8 µM and a GI50 ([16]; read-out: pGI50 (converted)) of less than 0.01 µM. It also gave a CC50 [16, 29] of 38 µM, a TGI ([16]; read-out: pTGI (converted)) of 11.7 µM and a growth at 0.1 µM [17] of 54%. For the same compound, the GI50 ([18]; read-out: GI50) was less than 0.01 µM, the CC50 [18, 28] was 29.9 µM and the TGI ([18]; read-out: TGI) was less than 0.01 µM. The GI50 ([18]; read-out: pGI50 (converted)) was less than 0.01 µM, the CC50 [18, 29] was 30.2 µM and the TGI ([18]; read-out: pTGI) was less than 0.01 µM. The growth at 1 µM [19] was 54%, the GI50 ([20]; read-out: GI50) was less than 0.01 µM and the CC50 [20, 28] was 51.3 µM. The TGI ([20]; read-out: TGI) was 11.5 µM, the GI50 ([20]; read-out: pGI50 (converted)) was less than 0.01 µM and the CC50 [20, 29] was 51.3 µM. The TGI ([20]; read-out: pTGI (converted)) was 11.5 µM, the growth at 0.01 µM [21] was -1% and the GI50 ([22]; read-out: GI50) was less than 0.01 µM. It also gave a CC50 [22, 28] greater than 100 µM, a TGI ([22]; read-out: TGI) of less than 0.01 µM and a GI50 ([22]; read-out: pGI50 (converted)) of less than 0.01 µM. It also gave a CC50 [22, 29] greater than 100 µM, a TGI ([22]; read-out: pTGI) of less than 0.01 µM and a GI50 ([23]; read-out: GI50) of less than 0.01 µM. The CC50 [23, 28] was greater than 100 µM, the TGI ([23]; read-out: TGI) was 22.9 µM and the GI50 ([23]; read-out: pGI50 (converted)) was less than 0.01 µM. It also gave a CC50 [23, 29] greater than 100 µM, a TGI ([23]; read-out: pTGI (converted)) of 22.9 µM and a growth at 0.01 µM [24] of -6%. For the same compound, the GI50 ([25]; read-out: GI50) was less than 0.01 µM, the CC50 [25, 28] was greater than 100 µM and the TGI ([25]; read-out: TGI) was 26.8 µM. For the same compound, the GI50 ([25]; read-out: pGI50 (converted)) was less than 0.01 µM, the CC50 [25, 29] was greater than 100 µM and the TGI ([25]; read-out: pTGI (converted)) was 26.9 µM. It also gave a growth at 10 µM [26] of 5% and a growth at 10 µM [27] of -38%.
